Assay results reported in US11840686B2, “Modulation of prekallikrein (PKK) expression” (Ionis Pharmaceuticals, Inc., priority 2013, dated 2023).
Strand notation (5' to 3'): a small letter for the sugar, then the base; units joined by * are phosphorothioate-linked, units joined directly phosphodiester-linked; [ ] holds rarer units or linkages, { } end groups; capitals alone tell only the bases. e = 2'-O-(2-methoxyethyl) (MOE); [5mC] = 5-methylcytosine; d = 2'-deoxy (DNA)

Experiments:
[1] = tested on: vascular permeability induced by ISIS 461756; assay: C1-INH antisense oligonucleotide-induced vascular permeability, Evans Blue OD600 (Example 18); type: in vivo, mouse
Description: Vascular permeability induced by ISIS 461756, an antisense oligonucleotide which targets murine C1 inhibitor mRNA, increases vascular permeability in mice and replicates the pathology of hereditary angioedema. The effect of ISIS 482584 on this model was evaluated.
One group of 8 mice was treated with 40 mg/kg ISIS 482584 administered subcutaneously twice a week for 3 weeks (weekly dose of 80 mg/kg). A second group of 8 mice was treated with 40 mg/kg of the control oligonucleotide, ISIS 141923, administered subcutaneously twice a week for 3 weeks (weekly dose of 80 mg/kg). A third group of 8 mice was treated with PBS administered subcutaneously twice a week for 3 weeks. On day 14, all the groups were treated with 12.5 mg/kg ISIS 461756 administered subcutaneously twice a week for 3 weeks (weekly dose of 25 mg/kg). A control group of mice was treated with PBS administered subcutaneously twice a week for 3 weeks but was not administered ISIS 461756.
At the end of the treatment period, all the groups were injected with 30 mg/kg of Evans Blue solution into the tail vein. The mice were sacrificed 30 min after the Evans Blue solution administration and colons, feet, ears, and intestines were harvested. The liver was also harvested for RNA analysis.
The harvested tissues from the feet, colon, and intestines were placed in formamide solution overnight to leach out the Evans Blue dye. The formamide solution containing feet tissue was heated to 55° C. and left overnight. The color intensity of the dye-infused formamide solution was then measured at OD600 nm. The data is presented in Table 80 as percent increase or reduction compared to the PBS control not treated with ISIS 461756.

[2] = tested on: PKK protein; assay: PKK protein in BALB/c mice plasma by immunoblot (Example 10); type: in vivo, mouse; conditions: for % inhibition of PKK protein in BALB/c mice plasma: twice a week for 3 weeks, relative to PBS control
Description: Six groups of male BALB/c mice each were treated with 2.5 mg/kg, 5.0 mg/kg, 10.0 mg/kg, 20.0 mg/kg, 40.0 mg/kg, or 80.0 mg/kg of ISIS 482584, administered subcutaneously twice a week for 3 weeks (weekly doses of 5.0 mg/kg, 10.0 mg/kg, 20.0 mg/kg, 40.0 mg/kg, 80.0 mg/kg, or 160.0 mg/kg). A control group of BALB/c mice was treated with PBS, administered subcutaneously twice a week for 3 weeks. Two days after the last dose of antisense oligonucleotide or PBS, mice from all groups were anesthetized with 150 mg/kg ketamine mixed with 10 mg/kg xylazine, administered by intraperitoneal injection. Liver was collected for RNA analysis.
Plasma was collected in tubes containing sodium citrate as an anticoagulant. The samples were run on a 4-12% gradient SDS-polyacrylamide gel (Invitrogen), followed by immunoblotting with murine PKK antibody (R&D Systems). Blots were incubated with secondary fluorophore-labeled antibodies (LI-COR) and imaged in an Odyssey Imager (LI-COR). Results are presented as percent inhibition of PKK, relative to PBS control.

[3] = tested on: human PKK mRNA; assay: Human PKK mRNA in liver of human KLKB1 transgenic mice (Example 7); type: in vivo; conditions: transgenic mice
In short: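 Transgenic mice carrying a 37,390 bp human KLKB1 fragment dosed subcutaneously twice weekly for 3 weeks at 2.5, 5.0, 10 or 20 mg/kg/week; PBS controls. Liver harvested 48 h after the last dose. Human PKK mRNA measured by real-time PCR and expressed as % inhibition versus PBS.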

[4] = C-reactive protein and complement C3 levels in cynomolgus monkeys (Example 8); conditions: cynomolgus monkey plasma, 40 mg/kg sc
Description: (§1) Prior to the study, the monkeys were kept in quarantine for a 30-day period, during which the animals were observed daily for general health. The monkeys were 2-4 years old and weighed between 2 and 4 kg. Ten groups of four randomly assigned male cynomolgus monkeys each were injected subcutaneously with ISIS oligonucleotide or PBS. PBS solution or ISIS oligonucleotides at a dose of 40 mg/kg were administered initially with a loading regimen consisting of four doses on the first week of the study (days 1, 3, 5, and 7), followed by a maintenance regimen consisting of once weekly administration starting on Day 14 (weeks 2 to 13). Subcutaneous injections were performed in clock-wise rotations at 4 sites on the back; one site per dose. The injection sites were delineated by tattoo, while sedated using ketamine, and were separated by a minimum of 3 cm.
To evaluate any inflammatory effect of ISIS oligonucleotides in cynomolgus monkeys, the monkeys were fasted overnight. Approximately, 1.5 mL of blood samples were collected from all the study groups. Blood was collected in tubes without anticoagulant for serum separation. The tubes were kept at room temperature for a minimum of 90 min and then centrifuged at 3,000 rpm for 10 min. C-reactive protein (CRP), which is synthesized in the liver and which serves as a marker of inflammation, was measured using a Toshiba 120FR NEO chemistry analyzer (Toshiba Co., Japan). Complement C3 was also measured similarly, and the data is presented as a percentage of baseline values.

[5] = Kidney function: plasma BUN and creatinine in cynomolgus monkeys (Example 8)
Description: as §1
To evaluate the effect of ISIS oligonucleotides on kidney function, the monkeys were fasted overnight. Approximately, 1.5 mL of blood samples were collected from all the study groups. Blood was collected in tubes without anticoagulant for serum separation. The tubes were kept at room temperature for a minimum of 90 min and then centrifuged at 3,000 rpm for 10 min. Levels of BUN and creatinine were measured using a Toshiba 120FR NEO chemistry analyzer (Toshiba Co., Japan).

[6] = tested on: basal vascular permeability; assay: Combination of PKK and Factor 12 antisense oligonucleotides on basal vascular permeability (Example 16); type: in vivo, mouse; conditions: positive control: PBS + HOE-140 30 μg ip
Description: Mice were treated with varying doses of ISIS 410944, an antisense oligonucleotide targeting Factor 12, and ISIS 482584 in a basal vascular permeability model.
Group 1 consisted of 8 mice and was treated with PBS administered subcutaneously twice a week for 3 weeks. No other treatment was administered to Group 1 which served as a control group to measure the basal levels of vascular permeability.
Group 2 consisted of 4 mice and was treated with PBS administered subcutaneously twice a week for 3 weeks. At the end of the treatment period, the mice were intraperitoneally administered 30 μg of HOE-140. Group 2 served as a positive control for inhibition of basal vascular permeability.
Groups 3, 4, 5, 6, and 7 consisted of 8 mice each and were treated with 2.5 mg/kg, 5 mg/kg, 10 mg/kg, 20 mg/kg, or 40 mg/kg (corresponding to 5 mg/kg, 10 mg/kg, 20 mg/kg, 40 mg/kg, or 80 mg/kg per week), respectively of ISIS 482584 and ISIS 410944 each administered subcutaneously twice a week for 3 weeks. Groups 3-7 served as the experimental treatment groups for examining the effect of ISIS 410944 and ISIS 482584 on basal vascular permeability.
All the groups were then injected with 30 mg/kg of Evans Blue solution in the tail vein. The mice were sacrificed 30 min after the Evans Blue solution administration and colons, feet, ears, and intestines were harvested.
The harvested tissues from the feet, colon, intestines, and ears were placed in formamide solution overnight to leach out the Evans Blue dye. The formamide solution containing feet and ear tissue was heated to 55° C. and left overnight. Higher OD values are associated with higher levels of permeability.

[7] = Evans Blue OD600, all groups ISIS 461756 25 mg/kg/wk, pretreatment PBS or oligonucleotide 80 mg/kg/wk

## ISIS 482584: 5-10-5 MOE gapmer targeting murine PKK, GGCATATTGGTTTTTGGAAT; SEQ ID NO: 2244 (antisense eG*eG*e[5mC]*eA*eT*dA*dT*dT*dG*dG*dT*dT*dT*dT*dT*eG*eG*eA*eA*eT)
[1]; 40 mg/kg s.c. twice a week for 3 weeks
  vascular permeability induced by ISIS 461756: prevented vascular permeability induced by ISIS 461756
[1]; [7]
  Percent change in vascular permeability compared to the untreated PBS control, Colon: −23%
  Percent change in vascular permeability compared to the untreated PBS control, Feet: 2%
  Percent change in vascular permeability compared to the untreated PBS control, Intestines: −25%
[2]; 5 mg/kg/wk sc
  % inhibition of PKK protein in BALB/c mice plasma: 5%
[2]; 10 mg/kg/wk sc
  % inhibition of PKK protein in BALB/c mice plasma: 24%
[2]; 20 mg/kg/wk sc
  % inhibition of PKK protein in BALB/c mice plasma: 47%
[2]; 40 mg/kg/wk sc
  % inhibition of PKK protein in BALB/c mice plasma: 76%
[2]; 80 mg/kg/wk sc
  % inhibition of PKK protein in BALB/c mice plasma: 81%
[2]; BALB/c mice, 2.5-80.0 mg/kg s.c. twice a week for 3 weeks, vs PBS
  reduction of PKK plasma protein: significant dose-dependent reduction of PKK plasma protein

## Tes Ges mCes Aes Aes Gds Tds mCds Tds mCds Tds Tds Gds Gds mCds Aes Aes Aes mCes Ae [ISIS 546254]
[3]; 2.5 mg/kg/week s.c. twice a week for 3 weeks
  human PKK mRNA inhibition: 31%
[3]; 5.0 mg/kg/week s.c. twice a week for 3 weeks
  human PKK mRNA inhibition: 55%
[3]; 10 mg/kg/week s.c. twice a week for 3 weeks
  human PKK mRNA inhibition: 84%
[3]; 20 mg/kg/week s.c. twice a week for 3 weeks
  human PKK mRNA inhibition: 83%
[4]
  C3 (% of baseline): 61 % of baseline
  CRP: 0.8 mg/dL
[5]; 40 mg/kg s.c.
  Plasma BUN: 25.7 mg/dL
  Plasma Creatinine: 0.9 mg/dL
[5]; plasma chemistry
  effect on kidney function: well tolerated in terms of the kidney function

## NC(N)=NCCC[C@@H](N)C(=O)N[C@@H](CCCN=C(N)N)C(=O)N1CCC[C@H]1C(=O)N1C[C@H](O)C[C@H]1C(=O)NCC(=O)N[C@@H](Cc1cccs1)C(=O)N[C@@H](CO)C(=O)N1Cc2ccccc2C[C@@H]1C(=O)N1[C@H](C(=O)N[C@@H](CCCN=C(N)N)C(=O)O)C[C@@H]2CCCC[C@@H]21 [HOE-140, Icatibant, reference compound]
[6]
  OD600 nm of Evans Blue dye, Colon: 0.14
  OD600 nm of Evans Blue dye, Ears: 0.008
  OD600 nm of Evans Blue dye, Feet: 0.04
  OD600 nm of Evans Blue dye, Intestines: 0.08
